Laboratory results taken from patent publication US20030039689A1, “Polymer-based, sustained release drug delivery system” (priority 2001, published 2003).

Key:
[1] = Release test from PVA coated glass plates into phosphate buffer, HPLC; type: physicochemical; settings: 0.1 M phosphate buffer pH 7.4, 37° C., intact compound plus constituents
[2] = Release test from silicone coated glass plates into phosphate buffer, HPLC
Excerpt: Samples were taken daily, and the entire release media was replaced with fresh media at each sampling time. […] Again, the data represent both intact and constituents of the inventive compound.

[3] = Release from TC-32 coated stents, non-implanted and explanted from swine, into phosphate buffer; type: physicochemical, common swine; settings: stents harvested on study day 5 from swine LAD and non-implanted stents; 0.1 M phosphate buffer
Procedure: Polyurethane (1.008 gm) was added to 50.0 gm of tetrahydrofuran (THF). The mixture was stirred overnight to dissolve the polymer. 5.0 gm of the polymer solution was diluted with 10.0 gm of THF. 150.2 mg of a co-drug of 5-fluorouracil (5FU) and triamcinolone acetonide (TA) (the co-drug being defined as “TC-32”) was added to the polymer solution and dissolved. The coating solution was prepared with 60% codrug loading. A 13% codrug loaded coating solution was also prepared. Bare stents (Tetra, Guidant, Lot# 1092154, 13 mm Tetra) were washed with isopropanol, air-dried, and spray coated with the coating solution using a precision airbrush. The coating was repeated until approximately 1.0 mg of total coating had been applied to each stent. The coated stents were vacuum dried for two hours at 50° C. to remove solvent residue, then subjected to plasma treatment and gamma-irradiation.
Co-drug coated stents were test in two groups. […] Samples were taken periodically and the concentration of co-drug in the buffer was tested by HPLC. The entire release media was replaced after each sample.
Group Two stents were placed in vivo. Three common swine had TC-32 coated stents implanted into the left anterior descending (LAD) coronary artery on study day 1. […] The amount of each drug released into the media was determined by HPLC.

[4] = Effect of gamma irradiation and plasma treatment on drug release from coated stents; type: physicochemical; settings: stents with or without plasma treatment and gamma-irradiation; 0.1 M phosphate buffer pH 7.4
Procedure: FIGS. 11A and 11B are graphs showing the effect of gamma irradiation and plasma treatment on drug release. […] Samples were taken periodically and the entire release media was replaced after each sample. The amount of each drug released into the media was determined by HPLC.

[5] = Release test from Chronoflex polymer/TC-32 dip-coated stents into phosphate buffer; type: physicochemical; settings: phosphate buffer pH 7.4, 37° C., HPLC
Procedure: To 5.0 gm of stirred dimethyl acetamide (DMAC), 300 mg of Chronoflex C(65D) (Lot# CTB-G25B-1234) and 200 mg of Chronoflex C(55D) (Lot# CTB-121B-1265) were added. The polymer was slowly dissolved in DMAC (about 4 hours). Then 5.0 gm of THF was added to the polymer dispersion. The mixture was not a clear solution. Then 100.9 mg of TC-32 was added and dissolved in the mixture.
Three (3) Stents, supplied by Guidant Corp, were coated then with the polymer/TC-32 solution by dipping and followed by air-drying under ambient temperature. The coating and air-drying process was repeated a few times till a total of about 2.0 mg of polymer/TC-32 were applied to each stent. The coated stents were air-dried under ambient temperature in a biological safety cabinet over night. The stents were then vacuum dried at 80° C. for two hour to remove the residue of the solvent. […] Samples were taken daily, and the entire media was replaced with a fresh one at each sampling time.

[6] = Release test from Chronoflex polymer/TC-32 coated HPLC inserts into phosphate buffer; type: physicochemical
Procedure: A mixture of 3.3 gm Chronoflex C(65D) (Lot# CTB-G25B-1234) dispersion containing 0.3 gm of Chronoflex C(65D) and 2.2 gm Chronoflex C(55D) (Lot# CTB-121B-1265) dispersion containing 0.2 gm of Chronoflex C (55D), both in dimethyl acetamide (DMAC) (1:10, w/w) was prepared by mixing the two dispersions together. To this mixture, 6.0 gm of tetrahydrofurane (HPLC grade) were added and mixed. The final mixture was not a clear solution. Then 101.5 mg of a co-drug of 5-fluorouracil (5FU) and triamcinolone acetonide (TA) (the co-drug being defmed as “TC-32”) was added and dissolved into the polymer solution.
Ten (10) HPLC inserts were then coated with the polymer/TC-32 solution by dipping, which was then followed by air-drying under ambient temperature. The coating and air-drying process was repeated four (4) times (5 times total) until a total of about 10 mg of polymer/TC-32 was applied to each insert. The inserts were then placed in an oven at 80° C. for two hour to remove the residue of the solvent.

COc1ccc2cc(C(C)C(=O)OCn3cc(F)c(=O)[nH]c3=O)ccc2c1 (centres unmarked) [TC-112]
release rate (slope of total cumulative release curve) [1]: 10 µg/day | release rate (slope of total cumulative release curve) ([2]; silicone coated glass plates, 0.1 M phosphate buffer pH 7.4, 37° C., intact compound plus constituents): 13.3 µg/day | naproxen detected in release media ([2]; silicone coated glass plates, up to day 6, phosphate buffer pH 7.4, 37° C.): 43.9 mg | TC-112 detected in buffer ([2]; silicone coating, up to day 6): 51.4 mg | TC-112 hydrolyzed (calculated from naproxen detected) ([2]; silicone coating, up to day 6): 71.0 mg | total TC-112 released (detected plus hydrolyzed) ([2]; silicone coating, up to day 6): 122.4 mg

CC1(C)O[C@@H]2CC3C4CCC5=CC(=O)C=CC5(C)[C@@]4(F)[C@@H](O)CC3(C)[C@]2(C(=O)COC(=O)OCn2cc(F)c(=O)[nH]c2=O)O1 (some centres unmarked) [TC-32]
intact codrug in release media [3]: not detectable | intact codrug in release media [4]: not detectable | intact codrug in the release media [5]: No TC-32 was detectable | half-life in buffer ([6]; 0.1 m phosphate buffer, pH 7.4, 37° C.): short | intact codrug in the release media ([6]; coated HPLC inserts, phosphate buffer pH 7.4, 37° C., HPLC): no TC-32 was detectable
